ChEMBL document CHEMBL1201862, “PubChem BioAssay data set” (2004)
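Five compound concentrations were applied to cells in 96-well plates for 48 hours; endpoints were derived by simple linear interpolation of the resulting dose-response curve. At the GI50, growth is halved.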 The source made the active and inactive calls. Rule as the data show it: active = GI50 up to about 1.1 µM and inactive = higher.

Key:
Assay in all cases: growth of human tumour cells (NCI), 48 h
[1] = tested on: MDA-N
[2] = tested on: MDA-MB-435
[3] = tested on: HCC 2998
[4] = tested on: Malme-3M
[5] = tested on: SF-268
[6] = tested on: UACC-62
[7] = tested on: NCI-H460
[8] = tested on: DU-145
[9] = tested on: EKVX
[10] = tested on: OVCAR-4
[11] = tested on: M14
[12] = tested on: TK-10
[13] = tested on: RPMI-8226
[14] = tested on: HT-29
[15] = tested on: SN12C
[16] = tested on: HL-60
[17] = tested on: MOLT-4
[18] = tested on: OVCAR-3
[19] = tested on: MCF7
[20] = tested on: NCI-H226

Row | Compound | GI50 [1] | GI50 [2] | GI50 [3] | GI50 [4] | GI50 [5] | GI50 [6] | GI50 [7] | GI50 [8] | GI50 [9] | GI50 [10] | GI50 [11] | GI50 [12] | GI50 [13] | GI50 [14] | GI50 [15] | GI50 [16] | GI50 [17] | GI50 [18] | GI50 [19] | GI50 [20]
1 | O=C(c1ccc(Cl)cc1)N(C(=S)OCCOc1ccccc1)c1ccccc1 | 16.6 µM (inactive) | 17 µM (inactive) | 19.5 µM (inactive) | 29 µM (inactive) | 25.1 µM (inactive) | 16.3 µM (inactive) | 23.2 µM (inactive) | 17.3 µM (inactive) | 20.1 µM (inactive) | 18.6 µM (inactive) | 16.1 µM (inactive) | 29.4 µM (inactive) | 18.1 µM (inactive) | 17.6 µM (inactive) | 19.3 µM (inactive) | 18.6 µM (inactive) | 22.4 µM (inactive) | 17.2 µM (inactive) | 16.1 µM (inactive) | –
2 | Cc1c(C(=O)c2ccccc2)[n+]([O-])c2cc(Cl)c(Cl)cc2[n+]1[O-] | 12.3 µM (inactive) | 11.9 µM (inactive) | 1.56 µM (inactive) | – | 15.3 µM (inactive) | 11.4 µM (inactive) | 15.9 µM (inactive) | 16.1 µM (inactive) | 13.5 µM (inactive) | 4.11 µM (inactive) | 2.87 µM (inactive) | 11.5 µM (inactive) | 4.7 µM (inactive) | 14.4 µM (inactive) | 15.2 µM (inactive) | 2.04 µM (inactive) | 2.73 µM (inactive) | 12.4 µM (inactive) | 10.7 µM (inactive) | 2.51 µM (inactive)
3 | BrCc1ccc2ccc3ccc(CBr)nc3c2n1 | 2.74 µM (inactive) | 4.12 µM (inactive) | 2.86 µM (inactive) | – | 3.27 µM (inactive) | 3.26 µM (inactive) | 4.23 µM (inactive) | 8.18 µM (inactive) | 9.59 µM (inactive) | 3.5 µM (inactive) | 2.85 µM (inactive) | 2.57 µM (inactive) | 0.887 µM (active) | 1.95 µM (inactive) | 2 µM (inactive) | 1.38 µM (inactive) | 1.65 µM (inactive) | 1.72 µM (inactive) | 1.88 µM (inactive) | 5.92 µM (inactive)
4 | CC(C)(C)OC(=O)NCCCC(=O)NC1(c2cc3ccccc3s2)CCCCC1 | 15.8 µM (inactive) | 15.4 µM (inactive) | 21.6 µM (inactive) | 16.2 µM (inactive) | 17.9 µM (inactive) | 10.8 µM (inactive) | 17 µM (inactive) | 24.8 µM (inactive) | 8.26 µM (inactive) | 20.5 µM (inactive) | 18 µM (inactive) | 29 µM (inactive) | 11.7 µM (inactive) | 13.1 µM (inactive) | 17.5 µM (inactive) | 6.76 µM (inactive) | 14.6 µM (inactive) | 16.3 µM (inactive) | 16.3 µM (inactive) | –
5 | Nc1ncnc2c1ccn2C/C=C/CO | > 100 µM (inactive) | > 100 µM (inactive) | > 100 µM (inactive) | > 100 µM (inactive) | > 100 µM (inactive) | > 100 µM (inactive) | > 100 µM (inactive) | > 100 µM (inactive) | > 100 µM (inactive) | > 100 µM (inactive) | > 100 µM (inactive) | > 100 µM (inactive) | > 100 µM (inactive) | > 100 µM (inactive) | > 100 µM (inactive) | > 100 µM (inactive) | > 100 µM (inactive) | > 100 µM (inactive) | > 100 µM (inactive) | –
6 | CN(C(=O)Cc1cc(Cl)c(Cl)cc1NC(=O)CN)[C@H]1CCCC[C@@H]1N1CCCC1 | 15.3 µM (inactive) | 16.1 µM (inactive) | 16.6 µM (inactive) | 20.8 µM (inactive) | 77.1 µM (inactive) | 16 µM (inactive) | 29.6 µM (inactive) | > 100 µM (inactive) | > 100 µM (inactive) | > 100 µM (inactive) | 18.2 µM (inactive) | 37.9 µM (inactive) | 30.8 µM (inactive) | 20.7 µM (inactive) | 56.6 µM (inactive) | 19.1 µM (inactive) | > 100 µM (inactive) | 38.8 µM (inactive) | 28.6 µM (inactive) | –
